Experimental data reported in ChEMBL document CHEMBL2074097, “Urate transport via human PAH transporter hOAT1 and its gene structure” (Kidney Int, 2003).

What was measured:
[1] = target: T1, Solute carrier family 22 member 6 (Homo sapiens, UniProt Q4U2R8); experiment: TP_TRANSPORTER: inhibition of Urate uptake (Urate: 300 uM, alpha-KG: 2000 uM) in OAT1-expressing S2 cells; type: functional, cell-based; set-up: scale not given: the % may be the effect or the level left; conditions: s2, 2000 µM
T1 sequence (Q4U2R8 whole entry): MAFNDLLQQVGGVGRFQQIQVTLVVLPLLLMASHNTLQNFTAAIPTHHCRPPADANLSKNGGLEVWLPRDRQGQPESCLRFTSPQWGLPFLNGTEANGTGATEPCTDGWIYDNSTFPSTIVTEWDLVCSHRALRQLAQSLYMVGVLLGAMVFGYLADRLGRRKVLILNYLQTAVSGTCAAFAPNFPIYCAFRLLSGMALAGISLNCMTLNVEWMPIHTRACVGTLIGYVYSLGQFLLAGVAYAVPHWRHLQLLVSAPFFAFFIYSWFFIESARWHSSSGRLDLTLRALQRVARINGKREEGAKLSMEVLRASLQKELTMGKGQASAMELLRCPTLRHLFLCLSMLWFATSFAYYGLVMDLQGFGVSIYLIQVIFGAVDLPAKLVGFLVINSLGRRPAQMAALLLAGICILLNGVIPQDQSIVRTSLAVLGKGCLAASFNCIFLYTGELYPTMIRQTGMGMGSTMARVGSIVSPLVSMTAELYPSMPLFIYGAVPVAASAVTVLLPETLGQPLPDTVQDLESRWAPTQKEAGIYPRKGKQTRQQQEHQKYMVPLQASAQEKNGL

[2] = substrate: O=c1[nH]c(=O)c2[nH]c(=O)[nH]c2[nH]1; experiment: TP_TRANSPORTER: uptake in OAT1-expressing S2 cells; type: functional, cell-based

O=C(O)CCC(=O)C(=O)O [ALPHA-KETOGLUTARIC ACID]
Activity [1]: 12.4%

B1: Solute carrier family 22 member 6 (Homo sapiens) (protein)
chain: T1 sequence (Q4U2R8 whole entry)
Km [2]: 947 µM
